Measurements from US11064698B2, “Tetrazolinone compound and use thereof” (SUMITOMO CHEMICAL COMPANY, LIMITED, priority 2017, dated 2021).

Tests used:
Assay type in all cases: in vivo
[1] = tested on: net blotch (Pyrenophora teres) on barley; assay: Preventive efficacy by foliage application against net blotch on barley
[2] = tested on: Septoria leaf blotch (Septoria tritici) on wheat; assay: Preventive efficacy by foliage application against Septoria leaf blotch on wheat
[3] = tested on: diamondback moth (Plutella xylostella); assay: Control test against diamondback moth (Plutella xylostella); settings: 500 ppm active ingredient, sprayed on cabbage seedlings 20 mL/seedling, 2nd instar larvae, after 5 days, 25° C.
Method: Next, a Test Example is used to show efficacy of the Present compound against pests. In the following Test Example, the test was carried out at 25° C. Test Example 1 Control test against diamondback moth (Plutella xylostella) The Present compound was formulated according to the process described in the Formulation Example 6 to obtain a formulation, and water containing a spreader (0.03% by volume) was added thereto to prepare a diluted solution containing 500 ppm of the active ingredient. Cabbage (Brassicae oleracea) seedlings (on the developmental stage of the second to third true leaf) were planted in a container, and said diluted solution was sprayed into the leaves of the seedlings at a ratio of 20 mL/seedling. Thereafter, the stems and leaves of the seedlings were cut out, and the leaves were placed into a container lined with a filter paper. Approximately five the 2nd instar larvae of diamondback moth (Plutella xylostella) were released into the container. After 5 days, the number of the surviving insects was examined, and the controlling value was calculated by the following equation. […] Controlling value (%)={1−(Cb×Tai)/(Cai×Tb)}×100 wherein the symbols in the equation represent the following meanings. […]

| SMILES | preventive efficacy against net blotch (Pyrenophora teres) [1] | preventive efficacy against Septoria leaf blotch (Septoria tritici) [2] | Controlling value (control effects) [3] [%] |
| --- | --- | --- | --- |
| Cc1cccc(-n2nnn(C)c2=O)c1COC1=NN(c2ccc(Cl)cc2)CC1 [compound represented by formula (4)] | showed preventive efficacy | showed preventive efficacy | – |
| Cc1cccc(-n2nnn(C)c2=O)c1CN1C(=O)CCN1c1ccc(Cl)cc1 [Present compound] | – | – | 100 |
